Laboratory results as given in PMC10979160 (Heliyon, 2024).
Values after ≈ are worked out from the molar mass of the structure shown. Counter-ions that a name gives are not always drawn. Like-named read-outs stand apart in the source and are kept apart here. One block for each molecule: values may come before it. Where a SMILES comes first, the peptide text is derived from it. [ ]: non-standard residue; d: D form.

What was measured:
E. coli ATCC 25922 [1] = assay: Checkerboard dilution assay for synergy between CAMPs and antibiotics; assay type: cell-based
E. coli ATCC 25922 [2] = assay: MIC test for dividing and non-dividing bacterial cultures; assay type: cell-based; settings: Escherichia coli, ATCC25922, 1 h
[3] = peptide + ampicillin, 5 × 10^3 CFU/mL
[4] = peptide + ampicillin, 5 × 10^5 CFU/mL
[5] = peptide + gentamicin, 5 × 10^3 CFU/mL
[6] = peptide + gentamicin, 5 × 10^5 CFU/mL
[7] = peptide + levofloxacin, 5 × 10^3 CFU/mL
[8] = peptide + levofloxacin, 5 × 10^5 CFU/mL
[9] = read-out: MIC, dividing cells (LB)
[10] = read-out: MIC, non-dividing cells (PBS)

Compound: CC[C@@H](C)[C@@H](NC(=O)[C@@H](Cc1c[nH]c2ccccc12)NC(=O)[C@H](N)CCCNC(=N)N)C(=O)N[C@H](CCCNC(=N)N)C(=O)N[C@H](Cc1c[nH]c2ccccc12)C(=O)N[C@@H](C(=O)N[C@H](Cc1c[nH]c2ccccc12)C(=O)N[C@H](CCCNC(=N)N)C(=O)N[C@H](CCCCN)C(=O)N[C@H](CCCCN)C(=O)N[C@H](CC(C)C)C(=O)N[C@H](CCCNC(=N)N)C(N)=O)C(C)C [24D] (H-[dR][dW][dI][dR][dW][dV][dW][dR][dK][dK][dL][dR]-NH2)
FICI (E. coli ATCC 25922 [1]; [3]): 1.016
FICI (E. coli ATCC 25922 [1]; [4]): 0.625
FICI (E. coli ATCC 25922 [1]; [5]): 1.015
FICI (E. coli ATCC 25922 [1]; [6]): 1
FICI (E. coli ATCC 25922 [1]; [7]): 1
FICI (E. coli ATCC 25922 [1]; [8]): 1.031

Compound: CC[C@H](C)[C@H](NC(=O)[C@H](Cc1c[nH]c2ccccc12)NC(=O)[C@@H](N)CCCNC(=N)N)C(=O)N[C@@H](CCCNC(=N)N)C(=O)N[C@@H](Cc1c[nH]c2ccccc12)C(=O)N[C@H](C(=O)N[C@@H](Cc1c[nH]c2ccccc12)C(=O)N[C@@H](CCCNC(=N)N)C(=O)N[C@@H](CCCCN)C(=O)N[C@@H](CCCCN)C(=O)N[C@@H](CC(C)C)C(=O)N[C@@H](CCCNC(=N)N)C(N)=O)C(C)C [24L] (H-RWIRWVWRKKLR-NH2)
FICI (E. coli ATCC 25922 [1]; [3]): 0.625
FICI (E. coli ATCC 25922 [1]; [4]): 0.5
FICI (E. coli ATCC 25922 [1]; [5]): 1
FICI (E. coli ATCC 25922 [1]; [6]): 0.5
FICI (E. coli ATCC 25922 [1]; [7]): 0.75
FICI (E. coli ATCC 25922 [1]; [8]): 0.5

MIC (E. coli ATCC 25922 [2]; [9]): > 100 µg/mL
MIC (E. coli ATCC 25922 [2]; [10]): > 100 µg/mL
Compound: CC1(C)S[C@@H]2[C@H](NC(=O)[C@H](N)c3ccccc3)C(=O)N2[C@H]1C(=O)O [Ampicillin, ampicillin sodium salt]

MIC (E. coli ATCC 25922 [2]; [9]): 50 µg/mL (≈ 105 µM)
MIC (E. coli ATCC 25922 [2]; [10]): 25 µg/mL (≈ 52.3 µM)
Compound: CNC(C)C1CCC(N)C(OC2C(N)CC(N)C(OC3OCC(C)(O)C(NC)C3O)C2O)O1 (stereo not shown) [Gentamicin, gentamicin]

Compound: CC[C@H](C)[C@H](NC(=O)[C@H](C)N)C(=O)N[C@@H](CCCCN)C(=O)N[C@H](C(=O)N[C@@H](CCCNC(=N)N)C(=O)N[C@@H](CCCCN)C(=O)N[C@@H](CC(C)C)C(=O)N[C@@H](Cc1ccccc1)C(=O)N[C@@H](CCCCN)C(=O)N[C@@H](CCCCN)C(=O)N[C@@H](CC(C)C)C(=O)N[C@@H](CC(C)C)C(=O)N[C@@H](CCCNC(=N)N)C(N)=O)[C@@H](C)CC [L1L] (H-AIKIRKLFKKLLR-NH2)
FICI (E. coli ATCC 25922 [1]; [3]): 0.563
FICI (E. coli ATCC 25922 [1]; [4]): 0.5
FICI (E. coli ATCC 25922 [1]; [5]): 0.75
FICI (E. coli ATCC 25922 [1]; [6]): 0.5
FICI (E. coli ATCC 25922 [1]; [7]): 0.625
FICI (E. coli ATCC 25922 [1]; [8]): 0.5

Compound: CC[C@H](C)[C@H](NC(=O)CN)C(=O)N[C@@H](CCCCN)C(=O)N[C@H](C(=O)N[C@@H](CCCNC(=N)N)C(=O)N[C@@H](CCCCN)C(=O)N[C@@H](CC(C)C)C(=O)N[C@@H](Cc1ccccc1)C(=O)N[C@@H](CCCCN)C(=O)N[C@@H](CCCCN)C(=O)N[C@@H](CC(C)C)C(=O)N[C@@H](CC(C)C)C(=O)N[C@@H](CCCNC(=N)N)C(N)=O)[C@@H](C)CC [LCAPL2] (H-GIKIRKLFKKLLR-NH2)
FICI (E. coli ATCC 25922 [1]; [3]): 0.5
FICI (E. coli ATCC 25922 [1]; [4]): 0.75
FICI (E. coli ATCC 25922 [1]; [5]): 0.625
FICI (E. coli ATCC 25922 [1]; [6]): 0.375
FICI (E. coli ATCC 25922 [1]; [7]): 0.531
FICI (E. coli ATCC 25922 [1]; [8]): 0.625

Compound: CC[C@H](C)[C@H](NC(=O)[C@H](CCCNC(=N)N)NC(=O)[C@H](CCCCN)NC(=O)[C@H](CC(C)C)NC(=O)[C@H](Cc1ccccc1)NC(=O)[C@H](CCCNC(=N)N)NC(=O)[C@H](C)NC(=O)[C@@H](N)C(C)C)C(=O)N[C@H](C(=O)N[C@@H](CCCCN)C(=O)N[C@@H](C)C(=O)N[C@@H](CC(C)C)C(=O)N[C@@H](Cc1ccccc1)C(N)=O)[C@@H](C)CC [LCAPL8] (H-VARFLKRIIKALF-NH2)
FICI (E. coli ATCC 25922 [1]; [3]): 1.016
FICI (E. coli ATCC 25922 [1]; [4]): 1.031
FICI (E. coli ATCC 25922 [1]; [5]): 1.031
FICI (E. coli ATCC 25922 [1]; [6]): 0.531
FICI (E. coli ATCC 25922 [1]; [7]): 1.25
FICI (E. coli ATCC 25922 [1]; [8]): 0.625

Compound: CC[C@H](C)[C@H](NC(=O)[C@H](Cc1ccccc1)NC(=O)CN)C(=O)N[C@@H](CCCCN)C(=O)N[C@H](C(=O)N[C@H](C(=O)N[C@@H](CCCNC(=N)N)C(=O)N[C@@H](CCCCN)C(=O)N[C@@H](CC(C)C)C(=O)N[C@@H](CC(C)C)C(=O)N[C@@H](CCCNC(=N)N)C(=O)N[C@@H](CC(C)C)C(=O)N[C@@H](Cc1ccccc1)C(N)=O)C(C)C)[C@@H](C)CC [LCAPL9] (H-GFIKIVRKLLRLF-NH2)
FICI (E. coli ATCC 25922 [1]; [3]): 1.016
FICI (E. coli ATCC 25922 [1]; [4]): 0.625
FICI (E. coli ATCC 25922 [1]; [5]): 1
FICI (E. coli ATCC 25922 [1]; [6]): 1.031
FICI (E. coli ATCC 25922 [1]; [7]): 2
FICI (E. coli ATCC 25922 [1]; [8]): 1.25

Compound: CC[C@H](C)[C@H](N)C(=O)N[C@H](C(=O)N[C@@H](CCCCN)C(=O)N[C@@H](CCCNC(=N)N)C(=O)N[C@H](C(=O)N[C@@H](CC(C)C)C(=O)N[C@H](C(=O)N[C@@H](CCC(N)=O)C(=O)N[C@@H](CC(C)C)C(=O)N[C@@H](CCCCN)C(=O)N[C@@H](CCCCN)C(=O)N[C@@H](CC(C)C)C(=O)N[C@@H](CC(C)C)C(N)=O)[C@@H](C)CC)[C@@H](C)CC)[C@@H](C)CC [LCAPL10] (H-IIKRILIQLKKLL-NH2)
FICI (E. coli ATCC 25922 [1]; [3]): 1.016
FICI (E. coli ATCC 25922 [1]; [4]): 0.75
FICI (E. coli ATCC 25922 [1]; [5]): 1.125
FICI (E. coli ATCC 25922 [1]; [6]): 0.5
FICI (E. coli ATCC 25922 [1]; [7]): 1.031
FICI (E. coli ATCC 25922 [1]; [8]): 0.531

Compound: CC(C)C[C@H](NC(=O)[C@H](Cc1ccccc1)NC(=O)[C@H](CCCCN)NC(=O)[C@@H](N)CCCCN)C(=O)NCC(=O)N[C@@H](CCCCN)C(=O)N[C@@H](Cc1c[nH]c2ccccc12)C(=O)N[C@@H](CCCCN)C(=O)N[C@@H](CC(C)C)C(=O)N[C@@H](CCCNC(=N)N)C(=O)N[C@@H](Cc1ccccc1)C(=O)NCC(=O)N[C@@H](Cc1c[nH]c2ccccc12)C(N)=O [LCAPL15] (H-KKFLGKWKLRFGW-NH2)
FICI (E. coli ATCC 25922 [1]; [3]): 0.75
FICI (E. coli ATCC 25922 [1]; [4]): 0.563
FICI (E. coli ATCC 25922 [1]; [5]): 1.031
FICI (E. coli ATCC 25922 [1]; [6]): 0.75
FICI (E. coli ATCC 25922 [1]; [7]): 0.75
FICI (E. coli ATCC 25922 [1]; [8]): 0.563

Compound: CC(C)C[C@@H](N)C(=O)N[C@@H](C(=O)N[C@H](Cc1c[nH]c2ccccc12)C(=O)N[C@H](CCCCN)C(=O)N[C@H](CC(C)C)C(=O)N[C@H](Cc1c[nH]c2ccccc12)C(=O)N[C@H](Cc1c[nH]c2ccccc12)C(=O)N[C@H](CCCNC(=N)N)C(=O)N[C@H](CC(C)C)C(=O)N[C@H](CCCNC(=N)N)C(=O)N[C@H](Cc1c[nH]c2ccccc12)C(=O)N[C@H](CC(C)C)C(=O)N[C@H](CCCCN)C(N)=O)C(C)C [ST1D] (H-[dL][dV][dW][dK][dL][dW][dW][dR][dL][dR][dW][dL][dK]-NH2)
FICI (E. coli ATCC 25922 [1]; [3]): 0.625
FICI (E. coli ATCC 25922 [1]; [4]): 0.625
FICI (E. coli ATCC 25922 [1]; [5]): 0.516
FICI (E. coli ATCC 25922 [1]; [6]): 0.625
FICI (E. coli ATCC 25922 [1]; [7]): 1
FICI (E. coli ATCC 25922 [1]; [8]): 1.031

Compound: CC(C)C[C@H](NC(=O)[C@H](Cc1c[nH]c2ccccc12)NC(=O)[C@H](CCCNC(=N)N)NC(=O)[C@H](CC(C)C)NC(=O)[C@H](CCCNC(=N)N)NC(=O)[C@H](Cc1c[nH]c2ccccc12)NC(=O)[C@H](Cc1c[nH]c2ccccc12)NC(=O)[C@H](CC(C)C)NC(=O)[C@H](CCCCN)NC(=O)[C@H](Cc1c[nH]c2ccccc12)NC(=O)[C@@H](NC(=O)[C@@H](N)CC(C)C)C(C)C)C(=O)N[C@@H](CCCCN)C(N)=O [ST1L] (H-LVWKLWWRLRWLK-NH2)
FICI (E. coli ATCC 25922 [1]; [3]): 0.375
FICI (E. coli ATCC 25922 [1]; [4]): 0.625
FICI (E. coli ATCC 25922 [1]; [5]): 1
FICI (E. coli ATCC 25922 [1]; [6]): 0.516
FICI (E. coli ATCC 25922 [1]; [7]): 0.625
FICI (E. coli ATCC 25922 [1]; [8]): 0.75
